Results from US11141419B1, “Use of iminosugars as prophylactic and therapy against COVID-19 / SARS-CoV-2” (priority 2020, dated 2021).
pIC50: −log10 of the molar value. Where two headings read alike, the source gives them in different places.

What was measured:
SARS-CoV-2/WA/1 virus = assay: Plaque reduction assay in Vero E6 cells; type: cell-based; conditions: Vero E6 cells pre-treated and overlaid with iminosugar, 40 PFU, 48 hrs, duplicate wells, read-out: IC50 against SARS-CoV-2 (plaque formation)
SARS-CoV-2 virus = type: cell-based; conditions: Vero E6, MOI 0.01, 100 μM iminosugar, 24 hrs, supernatant
[1] = tested on: Lentiviruses expressing SARS-CoV-2 spike glycoprotein (Wuhan isolate, P.1, B.1.1.7, B.1.351); type: cell-based; conditions: 100 μM iminosugar, 24 hrs pre-treatment, luciferase after 48 hrs
SARS-CoV-2 = type: cell-based; conditions: Huh7.0, lower MOI (0.1), 250 μM, three days
Huh7.0 human cells = assay: Cell viability (MTS assay) of uninfected Huh7.0 cells; conditions: various concentrations, three days
COVID-19 = conditions: repurposed drug regimens; cited from earlier work
[2] = Severe acute respiratory syndrome coronavirus 2, Vero C1008

C[C@H]1O[C@H](O[C@H]2[C@H](O)[C@@H](O)[C@@H](O[C@H]3[C@H](O)[C@@H](O)C(O)O[C@@H]3CO)O[C@@H]2CO)[C@H](O)[C@@H](O)[C@@H]1N[C@H]1C=C(CO)[C@@H](O)[C@H](O)[C@H]1O (some centres unmarked) [Acarbose, acarbose]
pIC50 (SARS-CoV-2/WA/1 virus; [2]): 3.98

O[C@H]1[C@H](O)[C@@H](O)CN2CC[C@H](O)[C@H]12 [Castanospermine, castanospermine]
pIC50 (SARS-CoV-2/WA/1 virus): 4.04
SARS-CoV-2 viral RNA production / viral genome copy number (N1 gene PCR) (SARS-CoV-2 virus): significantly reduced
pseudotyped SARS-CoV-2 viral entry into human 293t-hACE2 cells [1]: significant decrease

OCCN1C[C@H](O)[C@@H](O)[C@H](O)[C@H]1CO [Miglitol, miglitol]
pIC50 (SARS-CoV-2/WA/1 virus; [2]): 3.87
SARS-CoV-2 viral RNA production / viral genome copy number (N1 gene PCR) (SARS-CoV-2 virus): significantly reduced
pseudotyped SARS-CoV-2 viral entry into human 293t-hACE2 cells [1]: significant decrease
cell survival (SARS-CoV-2): completely restored
toxicity to human cells (Huh7.0 human cells): without toxicity

CCN(CCO)CCCC(C)Nc1ccnc2cc(Cl)ccc12 (centres unmarked) [hydroxychloroquine]
effect on hospitalized COVID-19 patients (COVID-19): little or no effect

Cc1cccc(C)c1OCC(=O)N[C@@H](Cc1ccccc1)[C@@H](O)C[C@H](Cc1ccccc1)NC(=O)[C@H](C(C)C)N1CCCNC1=O [lopinavir]
effect on hospitalized COVID-19 patients (COVID-19): little or no effect
